The source of these data is patent publication US4997827A, “Compositions containing 5-α-dihydro-19-norethisterone and derivatives thereof for in vivo inhibition of aromatase” (Medical Foundation of Buffalo, Inc., priority 1989, dated 1991).

Assay [1] deals with estrus cycle of BUF/N inbred female rats. Description: effect on the rat estrus cycle. The assay is classed as in vivo. The procedure: BUF/N inbred female rats (50-80 days old) showing regular 4-day estrus cycles were selected by a daily vaginal smear test. A fine powder of the steroid sample was suspended in sesame oil (30 mg/ml) and injected subcutaneously on the proestrus day at a single dose of 50 mg/kg body weight. Vaginal smears were examined daily until normal estrus returned for at least three cycles. The results from the single injection of 5α-DHNET are given in FIG. 1 and those for 6β-bromoandrostenedione are given in FIG. 2 for comparison.

For assay [2], the system named is NMU-induced breast carcinomas of BUF/N rats. Description: effect on breast tumor incidence, protocol II. The assay is classed as in vivo, rat. The procedure: The preventive and suppressive effect of 5α-DHNET on breast carcinomas was further examined in order to ascertain that this agent is effective under general conditions rather than limited to a specifically controlled protocol. Only a single dose of NMU was given to the BUF/N rats at 50th day of age and an oophorectomy was carried our at the 6th week after the NMU injection. The 5α-DHNET group received the agent for one week starting at the 6th week at a dose of 50 mg/kg body weight/day as given in FIG. 11. Monitoring was carried out as described in Example 4. After 41 weeks of observation, the tumor incidence was 65%, 33%, and 38% for the control, 5α-DHNET, and OVX group, respectively. The average number of tumors per tumor carrying rat was 2.6, 1.5, and 1.0 for the control, 5α-DHNET, and OVX group, respectively.

For another assay, the target named is T1, rat ovarian aromatase (Rattus norvegicus, UniProt P22443).
T1 construct: from tissue; host or cells: ovaries of BUF/N inbred female rats, 105,000 x g precipitate of the homogenate
T1 sequence (P22443 1-508): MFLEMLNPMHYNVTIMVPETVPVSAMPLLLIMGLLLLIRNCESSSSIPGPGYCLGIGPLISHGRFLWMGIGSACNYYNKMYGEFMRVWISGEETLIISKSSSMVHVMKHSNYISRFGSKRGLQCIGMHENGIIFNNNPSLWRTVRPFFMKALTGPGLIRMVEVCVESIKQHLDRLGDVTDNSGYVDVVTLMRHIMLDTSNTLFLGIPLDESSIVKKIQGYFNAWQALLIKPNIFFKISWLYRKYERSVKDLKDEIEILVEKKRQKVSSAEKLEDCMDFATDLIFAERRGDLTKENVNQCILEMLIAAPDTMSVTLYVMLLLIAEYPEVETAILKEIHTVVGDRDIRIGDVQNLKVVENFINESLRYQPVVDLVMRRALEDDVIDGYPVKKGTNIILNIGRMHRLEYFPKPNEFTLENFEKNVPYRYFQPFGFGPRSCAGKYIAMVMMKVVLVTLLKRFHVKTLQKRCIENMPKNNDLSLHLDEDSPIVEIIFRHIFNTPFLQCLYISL
Description: in vivo effect on rat ovarian aromatase activity (3H-water method). How it is done:
5α-DHNET (30 mg/ml sesame oil suspension) was injected s.c. twice daily for four days at a dose of 50 mg/kg body weight/day to BUF/N inbred female rats (50-80 days old) showing regular 4-day estrus cycles starting on the estrus day. The control group received injections of sesame oil in the same manner. Both ovaries were removed 3-4 hours after the final injection. The 105,000×g precipitate fraction of the ovarian homogenate was used for the aromatase assay. Aromatase activity was determined by the ^3 H-water method (F. L. Bellino, S. S. H. Gilani, S. S. Eng, Y. Osawa and W. L. Duax, Biochemistry, 15, 4730-4736 (1976)). The sedimented ovarian enzyme preparation was homogenized in 0.1 M phosphate buffer (pH 7.5) and incubated with [1β-^3 H, 4-^14 C]androstenedione (3.18×10^5 dpm ^3 H, 1.18×10^4 dpm ^14 C, 100.2 ng), NADPH (1 mg) and BSA (5 mg) in 0.1 M phosphate buffer (pH 7.5) in a total volume of 1.5 ml for 30 min at 37° C. Trichloroacetic acid solution (0.2 ml of 10% aqueous solution) was added to stop the enzyme reaction. Activated charcoal was added to the mixture and the spun supernatant was passed through a cotton plugged disposable pipet. The filtrate was counted for simultaneous ^3 H and ^14 C in a liquid scintillation spectrophotometer. The ^3 H-water released from the 1β-^3 H labeled androgen quantitatively corresponds to estrogen formation. The results of the in vivo aromatase suppression assay with 5α-DHNET, 6β-bromoandrostenedione (6β-BRA), and 6α-bromoandrostenedione (6α-BRA) are given in FIGS. 3, 4, and 5, respectively. 5α-DHNET suppressed 67% of the ovarian aromatase, whereas 6β-bromoandrostenedione suppressed 72% and 6α-bromoandrostenedione only an insignificant 10%.
A test of the acetate (C2) and n-butyrate (C4) on the in vivo effect on Ovarian Aromatase Activity was conducted. […] All procedures are the same as described in the above examples. […] The slightly better results obtained with the N-butyrate may be due to its higher solubility in sesame oil, indicating a higher retention in the body.

With `C#C[C@]1(O)CC[C@H]2[C@@H]3CC[C@H]4CC(=O)CC[C@@H]4[C@H]3CC[C@@]21C` [5α-DHNET, 5α-dihydro-19-norethisterone], the “animals with cessation of estrus cycles / animals tested” value in assay [1] (single s.c. dose 50 mg/kg body weight) is 4/4. Besides, in assay [1] (single s.c. dose 50 mg/kg body weight on proestrus day), the “effect on the estrus cycle” value is on record as “cessation of the estrus cycles for at least four cycles”. In assay [2] (after 41 weeks, single NMU dose, 50 mg/kg/day for one week from 6th week), the tumor incidence is reported as 33%. In addition, the “average number of tumors per tumor carrying rat” value in assay [2] (protocol II) stood at 1.5. Further, the “suppression of the ovarian aromatase activity” value at rat ovarian aromatase (50 mg/kg body weight/day s.c. twice daily for four days, 4-day cycling BUF/N rats) is listed as 67%. Besides, the “in vivo ovarian aromatase inactivation” value on rat ovarian aromatase (Example 7, 50 mg/kg body weight/day, regularly cycling BUF/N rats, compared to sesame oil control) was determined as 67.9%.
